In ChEMBL document CHEMBL5528046, “Discovery of Novel PROTAC Degraders of p300/CBP as Potential Therapeutics for Hepatocellular Carcinoma” (J Med Chem, 2024):
Calls of active or inactive are those of the source. The rule behind the calls is not given here.

Tests used:
[1] = target: T1, Protein cereblon/Histone acetyltransferase p300 (Homo sapiens, UniProt Q09472+Q96SW2); experiment: PROTAC activity at CRBN/p300 in human SK-HEP1 cells assessed as induction of p300 protein degradation by measuring residual activity at 100 nM incubated for 24 hrs by immunoblotting analysis (reference value: 100%); assay type: cell-based
T1 sequence (Q09472 2-2414 limits assumed): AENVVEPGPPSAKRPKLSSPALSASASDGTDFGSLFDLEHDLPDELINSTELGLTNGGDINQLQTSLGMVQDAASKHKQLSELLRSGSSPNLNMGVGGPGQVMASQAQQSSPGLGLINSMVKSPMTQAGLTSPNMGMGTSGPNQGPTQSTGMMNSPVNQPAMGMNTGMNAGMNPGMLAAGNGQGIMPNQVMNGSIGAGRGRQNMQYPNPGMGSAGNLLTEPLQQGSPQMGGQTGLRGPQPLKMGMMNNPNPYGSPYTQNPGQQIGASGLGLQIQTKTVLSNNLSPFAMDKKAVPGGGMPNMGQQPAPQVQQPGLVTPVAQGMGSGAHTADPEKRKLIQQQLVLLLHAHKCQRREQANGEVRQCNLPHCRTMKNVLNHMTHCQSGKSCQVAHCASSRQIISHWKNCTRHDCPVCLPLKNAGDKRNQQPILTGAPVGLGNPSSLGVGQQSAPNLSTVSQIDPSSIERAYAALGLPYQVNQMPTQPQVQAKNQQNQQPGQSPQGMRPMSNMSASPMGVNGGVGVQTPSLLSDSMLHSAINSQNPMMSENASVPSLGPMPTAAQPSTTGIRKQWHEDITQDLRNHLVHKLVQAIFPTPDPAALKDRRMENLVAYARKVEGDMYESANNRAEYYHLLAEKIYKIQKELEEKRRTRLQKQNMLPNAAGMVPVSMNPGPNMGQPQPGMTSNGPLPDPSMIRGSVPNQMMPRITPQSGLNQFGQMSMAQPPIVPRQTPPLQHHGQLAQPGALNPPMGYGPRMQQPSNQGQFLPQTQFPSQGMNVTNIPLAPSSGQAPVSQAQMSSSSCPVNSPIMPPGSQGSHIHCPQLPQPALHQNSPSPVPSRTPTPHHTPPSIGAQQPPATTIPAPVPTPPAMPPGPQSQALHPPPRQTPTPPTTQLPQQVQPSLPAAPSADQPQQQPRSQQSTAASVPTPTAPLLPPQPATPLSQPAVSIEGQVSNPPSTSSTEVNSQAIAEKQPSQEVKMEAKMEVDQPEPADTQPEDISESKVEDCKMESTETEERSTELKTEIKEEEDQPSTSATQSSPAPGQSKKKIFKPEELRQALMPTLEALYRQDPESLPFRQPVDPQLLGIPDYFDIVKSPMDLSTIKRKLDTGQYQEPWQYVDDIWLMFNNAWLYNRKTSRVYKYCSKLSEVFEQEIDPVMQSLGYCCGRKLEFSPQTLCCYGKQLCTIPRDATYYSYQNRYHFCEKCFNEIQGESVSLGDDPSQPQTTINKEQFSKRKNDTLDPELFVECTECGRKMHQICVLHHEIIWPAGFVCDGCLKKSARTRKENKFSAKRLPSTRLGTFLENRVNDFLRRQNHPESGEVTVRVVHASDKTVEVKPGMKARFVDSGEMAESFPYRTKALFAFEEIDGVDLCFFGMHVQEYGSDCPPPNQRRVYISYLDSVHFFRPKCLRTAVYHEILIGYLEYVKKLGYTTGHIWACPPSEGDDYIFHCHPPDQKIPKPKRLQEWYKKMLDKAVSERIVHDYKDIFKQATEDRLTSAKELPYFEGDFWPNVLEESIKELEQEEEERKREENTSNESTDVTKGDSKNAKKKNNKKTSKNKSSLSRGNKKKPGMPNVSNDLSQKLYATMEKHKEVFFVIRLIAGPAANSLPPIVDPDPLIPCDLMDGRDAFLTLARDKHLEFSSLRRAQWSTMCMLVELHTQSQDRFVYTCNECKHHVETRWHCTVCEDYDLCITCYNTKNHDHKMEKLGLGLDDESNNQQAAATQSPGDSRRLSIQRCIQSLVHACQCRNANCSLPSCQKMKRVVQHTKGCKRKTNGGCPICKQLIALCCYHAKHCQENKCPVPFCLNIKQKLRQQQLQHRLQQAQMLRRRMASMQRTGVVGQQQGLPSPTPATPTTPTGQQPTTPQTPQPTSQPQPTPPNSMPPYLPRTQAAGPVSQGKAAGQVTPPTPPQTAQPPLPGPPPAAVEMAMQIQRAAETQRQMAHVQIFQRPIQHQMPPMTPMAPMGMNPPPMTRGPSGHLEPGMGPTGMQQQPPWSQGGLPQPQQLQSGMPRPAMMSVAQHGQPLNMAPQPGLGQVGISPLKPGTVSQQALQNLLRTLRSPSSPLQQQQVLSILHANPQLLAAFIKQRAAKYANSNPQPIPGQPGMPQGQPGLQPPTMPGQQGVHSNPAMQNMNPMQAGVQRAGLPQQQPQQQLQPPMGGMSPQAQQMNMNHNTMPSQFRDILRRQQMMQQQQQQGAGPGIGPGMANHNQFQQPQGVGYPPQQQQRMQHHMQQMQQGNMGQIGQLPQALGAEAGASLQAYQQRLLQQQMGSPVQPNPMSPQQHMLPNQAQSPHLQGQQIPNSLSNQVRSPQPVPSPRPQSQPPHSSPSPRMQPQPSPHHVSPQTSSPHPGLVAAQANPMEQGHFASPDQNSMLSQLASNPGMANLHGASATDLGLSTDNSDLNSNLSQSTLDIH
T1 sequence (Q96SW2 whole entry partner): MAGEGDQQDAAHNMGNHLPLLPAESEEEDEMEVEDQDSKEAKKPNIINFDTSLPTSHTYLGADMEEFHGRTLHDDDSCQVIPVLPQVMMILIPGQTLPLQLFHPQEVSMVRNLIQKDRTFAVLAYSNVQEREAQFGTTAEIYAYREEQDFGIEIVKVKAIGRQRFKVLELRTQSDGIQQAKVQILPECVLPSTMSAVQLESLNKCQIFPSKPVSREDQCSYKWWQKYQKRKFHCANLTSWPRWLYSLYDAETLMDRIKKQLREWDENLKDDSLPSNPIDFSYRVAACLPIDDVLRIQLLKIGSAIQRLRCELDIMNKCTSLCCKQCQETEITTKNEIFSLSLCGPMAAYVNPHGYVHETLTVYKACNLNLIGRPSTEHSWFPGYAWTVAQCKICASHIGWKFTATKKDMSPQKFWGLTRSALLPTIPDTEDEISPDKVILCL

[2] = target: Protein cereblon/CREB-binding protein (Homo sapiens) (UniProt Q92793+Q96SW2); experiment: PROTAC activity at CRBN/CBP in human SK-HEP1 cells assessed as induction of […] protein degradation by measuring residual activity at 0.5 uM incubated for 24 hrs by immunoblotting analysis (reference value: 100%); assay type: cell-based
[3] = target: T1, Protein cereblon/Histone acetyltransferase p300; experiment: PROTAC activity at CRBN/p300 in human SK-HEP1 cells assessed as induction of p300 protein degradation by measuring residual activity at 1 uM incubated for 0.5 hrs by immunoblotting analysis (reference value: 100%); assay type: cell-based
[4] = target: T1, Protein cereblon/Histone acetyltransferase p300; experiment: PROTAC activity at CRBN/p300 in human SK-HEP1 cells assessed as induction of p300 protein degradation by measuring residual activity at 2 uM incubated for 24 hrs by immunoblotting analysis (reference value: 100%); assay type: cell-based
[5] = target: T1, Protein cereblon/Histone acetyltransferase p300; experiment: PROTAC activity at CRBN/p300 in human SK-HEP1 cells assessed as induction of p300 degradation by measuring residual activity at 0.5 uM pretreated with MG-132 followed by compound addition by immunoblotting analysis relative to control; assay type: cell-based
[6] = Antiproliferative activity against human JHH7 cells assessed as inhibition of cell growth incubated for 5 days by CCK-8 assay; assay type: functional, cell-based; conditions: JHH7, 120 h
SK-HEP1 [7] = experiment: Inhibition of colony formation in human SK-HEP1 cells at 1 uM incubated for 14 days with compound containing media replacement for every 3 days by crystal violet staining based assay relative to control; assay type: functional; conditions: SK-HEP1, 336 h, time 14 day
SK-HEP1 [8] = experiment: Induction of cell cycle arrest at G2/M phase in human SK-HEP1 cells incubated for 48 hrs by RNase/PI staining based flow cytometry analysis; assay type: functional; conditions: dose 0.5-2 µM
SK-HEP1 [9] = experiment: Induction of apoptosis in human SK-HEP1 cells incubated for 72 hrs by Annexin V-FITC/PI staining based flow cytometry analysis; assay type: functional, cell-based; conditions: dose 0.5-2 µM
SK-HEP1 [10] = experiment: Induction of cell cycle arrest at G2/M phase in human SK-HEP1 cells assessed as SKP2 protein level at 0.5 uM incubated for 24 hrs by immunoblotting analysis (reference value: 100%); assay type: functional
Mus musculus = experiment: In vivo PROTAC activity at CRBN/p300 in nude mouse xenografted with human SK-HEP1 cells assessed as reduction in p300 protein level in tumor at 50 mg/kg, ip measured after 24 hrs by immunoblotting analysis; assay type: functional, organism-based
[11] = target: T1, Protein cereblon/Histone acetyltransferase p300; experiment: PROTAC activity at CRBN/p300 in human SK-HEP1 cells assessed as increase in protein ubiquitination at 2 uM incubated for 24 hrs by immunoblotting analysis (reference value: 100%); assay type: cell-based

Activity [1]: 61%
Activity [2]: 98%
Activity [3]: 100%
Activity [4]: 62%
Activity [5]: 93%
Activity [11]: 125%
Structure (SMILES): Cc1noc(C)c1-c1ccc2c(c1)nc([C@@H]1CCCC(=O)N1c1ccc(F)c(F)c1)n2C1CCN(C2CN(c3ccc4c(c3)C(=O)N(C3CCC(=O)NC3=O)C4=O)C2)CC1 (some centres not stated)
IC50 [6]: 447 nM
inhibition at 1 µM (SK-HEP1 [7]): > 70%
Activity (SK-HEP1 [8]): Dose-Dependent Effect
Activity (SK-HEP1 [9]): Dose-Dependent Effect
Activity (SK-HEP1 [10]): 117%
Activity (Mus musculus): Active
